Experimental data published in the supplement of paper PMC11061612.

Key:
[1] = compound: CC(=O)Nc1cccc(-n2c(=O)n(C3CC3)c(=O)c3c(Nc4ccc(I)cc4F)n(C)c(=O)c(C)c32)c1 [Trametinib]; details: max 1 µM
Method in brief: (§1)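 Plates with 1536 wells received cancer cell lines in 7.5 μl of DMEM/F12 or RPMI containing 10% FBS. After 24 hours at 37°C and 5% CO2, cells were dosed for 72 hours with final DMSO typically 0.2%, and viability was read by CellTiter-Glo 2.0 luminescence scaled between blank-well and DMSO-well means. The single-agent IC50 was taken from a logistic fit of the dose responses made with a non-linear mixed effects model, that logistic curve having two parameters.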

[2] = compound: CC(C)n1c(=O)n(C)c2cnc3cc(F)c(-c4ccc(OCCCN5CCCCC5)nc4)cc3c21 [AZD1390]; details: max 0.3 µM
Method in brief: as §1

[3] = compound: COc1nnc2ccc(N3CCC(c4ccc(OCCN5CCN(C)C(=O)[C@H]5C)cc4)CC3)nn12 [AZD5153]; details: max 1 µM
Method in brief: as §1

[4] = compound: CC1=CN2[C@@H](C1)C=NC3=CC(=C(C=C3C2=O)OC)OCCCCCOC4=C(C=C5C(=C4)N=C[C@@H]6CC(=CN6C5=O)C)OC [SG3199]; details: max 0.001 µM
Method in brief: as §1

[5] = compound: COc1cc2ncnc(Nc3ccc(F)c(Cl)c3)c2cc1OCCCN1CCOCC1 [Gefitinib]; details: max 10 µM
Method in brief: as §1

[6] = compound: C[C@@H](Nc1cc(F)cc(F)c1)c1cc(C(=O)N(C)C)cc2c(=O)cc(N3CCOCC3)oc12 [AZD8186]; details: max 3 µM
Method in brief: as §1

[7] = compound: CN(C)CCCOc1ccc(-c2ccc3ncc4c(c3c2)n(C2CCOCC2)c(=O)n4C)cn1 [AZD0156]; details: max 3 µM
Method in brief: as §1

[8] = compound: C1CN(CCC1(C(=O)N[C@@H](CCO)C2=CC=C(C=C2)Cl)N)C3=NC=NC4=C3C=CN4 [Capivasertib]; details: max 10 µM
Method in brief: as §1

[9] = compound: C[C@@H](Oc1cc(-c2cnn(C3CCNCC3)c2)cnc1N)c1c(Cl)ccc(F)c1Cl [Crizotinib]; details: max 10 µM
Method in brief: as §1

[10] = compound: CS(=O)(=O)CCNCc1ccc(-c2ccc3ncnc(Nc4ccc(OCc5cccc(F)c5)c(Cl)c4)c3c2)o1 [Lapatinib]; details: max 10 µM
Method in brief: as §1

[11] = compound: CC1=C(C(=CC=C1)Cl)NC(=O)C2=CN=C(S2)NC3=CC(=NC(=N3)C)N4CCN(CC4)CCO [Dasatinib]; details: max 2 µM
Method in brief: as §1

[12] = compound: COc1cccc2c1C(=O)c1c(O)c3c(c(O)c1C2=O)C[C@@](O)(C(=O)CO)C[C@@H]3O[C@H]1C[C@H](N)[C@H](O)[C@H](C)O1 [Doxorubicin]; details: max 1 µM
Method in brief: as §1

[13] = compound: CCN(CCO)CCCOc1ccc2c(Nc3cc(CC(=O)Nc4cccc(F)c4)[nH]n3)ncnc2c1 [AZD2811]; details: max 1 µM
Method in brief: as §1

[14] = compound: Cc1c2c(nn1C)CSCc1cc(n(C)n1)CSc1cc(c3ccccc3c1)OCCCc1c(C(=O)O)n(C)c3c-2c(Cl)ccc13 [AZD5991]; details: max 1 µM
Method in brief: as §1

[15] = compound: CN(CC[C@H](CSC1=CC=CC=C1)NC2=C(C=C(C=C2)S(=O)(=O)NC(=O)C3=CC=C(C=C3)N4CCC(CC4)[C@H](C5=CC=CC=C5C6=CC=C(C=C6)Cl)O)S(=O)(=O)C(F)(F)F)CCO [AZD4320]; details: max 1 µM
Method in brief: as §1

[16] = compound: C[C@@H](c1ccc2nccn2c1)n1nnc2ncc(-c3cnn(C)c3)nc21 [Savolitinib]; details: max 1 µM
Method in brief: as §1

[17] = compound: O=C(c1cc(Cc2n[nH]c(=O)c3ccccc23)ccc1F)N1CCN(C(=O)C2CC2)CC1 [Olaparib]; details: max 10 µM
Method in brief: as §1

[18] = compound: COc1cccc(OCCCN)c1-c1cc(Nc2cnc(C#N)cn2)n[nH]1 [Prexasertib]; details: max 1 µM
Method in brief: as §1

[19] = compound: CC(=O)c1c(C)c2cnc(Nc3ccc(N4CCNCC4)cn3)nc2n(C2CCCC2)c1=O [Palbociclib]; details: max 10 µM
Method in brief: as §1

[20] = compound: Cc1nc(-c2cn3c(n2)-c2ccc(-c4cnn(C(C)(C)C(N)=O)c4)cc2OCC3)n(C(C)C)n1 [Taselisib]; details: max 10 µM
Method in brief: as §1

[21] = compound: Cn1cnc2c(F)c(Nc3ccc(Br)cc3Cl)c(C(=O)NOCCO)cc21 [Selumetinib]; details: max 10 µM
Method in brief: as §1

[22] = compound: CCc1c2c(nc3ccc(O)cc13)-c1cc3c(c(=O)n1C2)COC(=O)[C@]3(O)CC [SN-38]; details: max 0.3 µM
Method in brief: as §1

[23] = compound: COc1cc(Nc2ncc3c(n2)-c2ccc(Cl)cc2C(c2c(F)cccc2OC)=NC3)ccc1C(=O)O [Alisertib]; details: max 10 µM
Method in brief: as §1

[24] = compound: C=CCn1c(=O)c2cnc(Nc3ccc(N4CCN(C)CC4)cc3)nc2n1-c1cccc(C(C)(C)O)n1 [AZD1775]; details: max 3 µM
Method in brief: as §1

[25] = compound: Cc1cc2ncnn2cc1Nc1ncc2c(n1)n(C1CCOCC1)c(=O)n2C [AZD7648]; details: max 10 µM
Method in brief: as §1

[26] = compound: C[C@@H]1COCCN1C2=NC(=NC(=C2)C3(CC3)[S@](=N)(=O)C)C4=C5C=CNC5=NC=C4 [AZD6738]; details: max 10 µM
Method in brief: as §1

[27] = compound: CC1(C)CCC(CN2CCN(c3ccc(C(=O)NS(=O)(=O)c4ccc(NCC5CCOCC5)c([N+](=O)[O-])c4)c(Oc4cnc5[nH]ccc5c4)c3)CC2)=C(c2ccc(Cl)cc2)C1 [Venetoclax]; details: max 1 µM
Method in brief: as §1

Cell Line	IC50, cell viability 72 h [1]	IC50, cell viability 72 h [2]	IC50, cell viability 72 h [3]	IC50, cell viability 72 h [4]	IC50, cell viability 72 h [5]	IC50, cell viability 72 h [6]	IC50, cell viability 72 h [7]	IC50, cell viability 72 h [8]	IC50, cell viability 72 h [9]	IC50, cell viability 72 h [10]	IC50, cell viability 72 h [11]	IC50, cell viability 72 h [12]	IC50, cell viability 72 h [13]	IC50, cell viability 72 h [14]	IC50, cell viability 72 h [15]	IC50, cell viability 72 h [16]	IC50, cell viability 72 h [17]	IC50, cell viability 72 h [18]	IC50, cell viability 72 h [19]	IC50, cell viability 72 h [20]	IC50, cell viability 72 h [21]	IC50, cell viability 72 h [22]	IC50, cell viability 72 h [23]	IC50, cell viability 72 h [24]	IC50, cell viability 72 h [25]	IC50, cell viability 72 h [26]	IC50, cell viability 72 h [27]
786-0 (Kidney Carcinoma)	> 1 µM	> 0.3 µM	0.523 µM	> 0.001 µM	> 10 µM	> 3 µM	> 3 µM	4.54 µM	> 10 µM	6.48 µM	0.396 µM	0.571 µM	> 1 µM	> 1 µM	> 1 µM	> 1 µM	> 10 µM	0.0288 µM	> 10 µM	> 10 µM	> 10 µM	0.023 µM	> 10 µM	0.392 µM	> 10 µM	5.55 µM	> 1 µM
AN3-CA (Endometrial Carcinoma)	> 1 µM	> 0.3 µM	> 1 µM	> 0.001 µM	> 10 µM	> 3 µM	> 3 µM	1.65 µM	> 10 µM	> 10 µM	> 2 µM	> 1 µM	> 1 µM	> 1 µM	> 1 µM	> 1 µM	> 10 µM	0.0665 µM	> 10 µM	0.615 µM	> 10 µM	> 0.3 µM	1.37 µM	1.29 µM	> 10 µM	> 10 µM	> 1 µM
AsPC-1 (Pancreatic Carcinoma)	0.866 µM	> 0.3 µM	> 1 µM	> 0.001 µM	> 10 µM	> 3 µM	> 3 µM	> 10 µM	> 10 µM	> 10 µM	> 2 µM	> 1 µM	> 1 µM	> 1 µM	> 1 µM	> 1 µM	> 10 µM	> 1 µM	> 10 µM	> 10 µM	> 10 µM	> 0.3 µM	> 10 µM	> 3 µM	> 10 µM	> 10 µM	> 1 µM
BALL-1 (B-Lymphoblastic Leukemia)	> 1 µM	> 0.3 µM	0.059 µM	> 0.001 µM	> 10 µM	> 3 µM	> 3 µM	7.83 µM	5.24 µM	> 10 µM	> 2 µM	0.123 µM	0.865 µM	> 1 µM	0.00584 µM	> 1 µM	6.29 µM	0.00512 µM	1.15 µM	> 10 µM	> 10 µM	0.00157 µM	0.0849 µM	0.131 µM	> 10 µM	0.487 µM	0.0047 µM
